# Laboratory results: patent US6191288A, “Pyronin antibacterials, process and novel intermediates thereto” (Anadys Pharmaceuticals, Inc., priority 1999, dated 2001)
# pIC50: −log10 of the molar value. Like-named read-outs stand apart in the source and are kept apart here.
# How the values were obtained:
# S. aureus RNAP = S. aureus RNAP (Staphylococcus aureus, UniProt P47768+Q2G0N5); test: In vitro transcription assay, S. aureus RNAP; type: biochemical
# Protocol: (§1) In vitro transcription reactions. [α-^32 P] UTP-incorporated RNA was synthesized in 50 μl reaction volumes containing transcription buffer (50 mM Tris-HCl, pH 8.0, 200 mM KCL, 10 mM MgCl2, 10 mM DTT and 1.5 μM BSA), […] of DNA template, 4 μM UTP containing 5 μl of [α-^32 P] UTP, 400 μM each of ATP, GTP, and CTP. After incubation for 60 minutes at 25 ° C., the reaction is terminated with 100 μl 10% TCA, which also recipitates the newly transcribed RNA.
# E. coli RNA polymerase = E. coli RNA polymerase (Escherichia coli, UniProt P0A8T7+P0A8V2); test: In vitro transcription assay, E. coli RNA polymerase; type: biochemical; settings: for Relative potency in the in vitro transcription assay using E. coli RNA polymerase: FIGS. 20a,b, comparison in words; for IC50: Table II, in vitro transcription, read-out: IC50 E. coli (source of polymerase) (converted)
# Sequence of E. coli RNA polymerase (P0A8V2 whole entry): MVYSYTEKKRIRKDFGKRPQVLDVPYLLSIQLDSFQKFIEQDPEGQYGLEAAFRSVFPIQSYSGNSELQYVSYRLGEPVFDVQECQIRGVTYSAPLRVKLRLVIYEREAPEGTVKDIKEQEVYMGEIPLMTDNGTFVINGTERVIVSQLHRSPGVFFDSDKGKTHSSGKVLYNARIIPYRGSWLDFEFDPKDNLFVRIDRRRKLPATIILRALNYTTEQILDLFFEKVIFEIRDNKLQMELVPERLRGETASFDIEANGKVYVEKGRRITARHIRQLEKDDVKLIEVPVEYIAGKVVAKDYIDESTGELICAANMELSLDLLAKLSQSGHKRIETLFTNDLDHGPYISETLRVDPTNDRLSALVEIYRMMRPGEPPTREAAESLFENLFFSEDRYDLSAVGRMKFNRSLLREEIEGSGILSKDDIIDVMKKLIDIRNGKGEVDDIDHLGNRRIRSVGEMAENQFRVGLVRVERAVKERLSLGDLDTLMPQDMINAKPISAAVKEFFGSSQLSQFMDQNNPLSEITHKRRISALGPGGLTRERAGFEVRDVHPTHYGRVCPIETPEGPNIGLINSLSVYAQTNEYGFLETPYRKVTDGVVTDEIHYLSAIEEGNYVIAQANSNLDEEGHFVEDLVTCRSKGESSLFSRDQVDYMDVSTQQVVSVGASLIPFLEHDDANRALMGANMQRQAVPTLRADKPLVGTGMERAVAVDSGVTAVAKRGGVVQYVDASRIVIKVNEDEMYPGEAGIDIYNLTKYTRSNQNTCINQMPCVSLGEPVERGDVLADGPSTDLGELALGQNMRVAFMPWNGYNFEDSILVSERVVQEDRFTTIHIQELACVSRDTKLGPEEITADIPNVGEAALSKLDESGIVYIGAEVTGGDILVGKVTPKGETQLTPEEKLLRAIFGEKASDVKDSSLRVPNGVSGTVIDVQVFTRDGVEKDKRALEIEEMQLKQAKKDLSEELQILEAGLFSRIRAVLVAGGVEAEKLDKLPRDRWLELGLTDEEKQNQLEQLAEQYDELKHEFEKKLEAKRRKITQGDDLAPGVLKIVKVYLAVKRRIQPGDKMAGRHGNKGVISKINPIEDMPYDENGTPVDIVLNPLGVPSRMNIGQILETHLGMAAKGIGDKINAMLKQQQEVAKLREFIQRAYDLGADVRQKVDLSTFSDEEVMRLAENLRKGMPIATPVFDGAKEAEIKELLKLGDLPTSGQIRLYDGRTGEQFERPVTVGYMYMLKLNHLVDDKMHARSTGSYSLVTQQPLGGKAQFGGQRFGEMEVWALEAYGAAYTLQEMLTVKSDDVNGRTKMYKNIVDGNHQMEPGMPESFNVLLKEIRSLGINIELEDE
# Sequence of E. coli RNA polymerase (P0A8T7 whole entry): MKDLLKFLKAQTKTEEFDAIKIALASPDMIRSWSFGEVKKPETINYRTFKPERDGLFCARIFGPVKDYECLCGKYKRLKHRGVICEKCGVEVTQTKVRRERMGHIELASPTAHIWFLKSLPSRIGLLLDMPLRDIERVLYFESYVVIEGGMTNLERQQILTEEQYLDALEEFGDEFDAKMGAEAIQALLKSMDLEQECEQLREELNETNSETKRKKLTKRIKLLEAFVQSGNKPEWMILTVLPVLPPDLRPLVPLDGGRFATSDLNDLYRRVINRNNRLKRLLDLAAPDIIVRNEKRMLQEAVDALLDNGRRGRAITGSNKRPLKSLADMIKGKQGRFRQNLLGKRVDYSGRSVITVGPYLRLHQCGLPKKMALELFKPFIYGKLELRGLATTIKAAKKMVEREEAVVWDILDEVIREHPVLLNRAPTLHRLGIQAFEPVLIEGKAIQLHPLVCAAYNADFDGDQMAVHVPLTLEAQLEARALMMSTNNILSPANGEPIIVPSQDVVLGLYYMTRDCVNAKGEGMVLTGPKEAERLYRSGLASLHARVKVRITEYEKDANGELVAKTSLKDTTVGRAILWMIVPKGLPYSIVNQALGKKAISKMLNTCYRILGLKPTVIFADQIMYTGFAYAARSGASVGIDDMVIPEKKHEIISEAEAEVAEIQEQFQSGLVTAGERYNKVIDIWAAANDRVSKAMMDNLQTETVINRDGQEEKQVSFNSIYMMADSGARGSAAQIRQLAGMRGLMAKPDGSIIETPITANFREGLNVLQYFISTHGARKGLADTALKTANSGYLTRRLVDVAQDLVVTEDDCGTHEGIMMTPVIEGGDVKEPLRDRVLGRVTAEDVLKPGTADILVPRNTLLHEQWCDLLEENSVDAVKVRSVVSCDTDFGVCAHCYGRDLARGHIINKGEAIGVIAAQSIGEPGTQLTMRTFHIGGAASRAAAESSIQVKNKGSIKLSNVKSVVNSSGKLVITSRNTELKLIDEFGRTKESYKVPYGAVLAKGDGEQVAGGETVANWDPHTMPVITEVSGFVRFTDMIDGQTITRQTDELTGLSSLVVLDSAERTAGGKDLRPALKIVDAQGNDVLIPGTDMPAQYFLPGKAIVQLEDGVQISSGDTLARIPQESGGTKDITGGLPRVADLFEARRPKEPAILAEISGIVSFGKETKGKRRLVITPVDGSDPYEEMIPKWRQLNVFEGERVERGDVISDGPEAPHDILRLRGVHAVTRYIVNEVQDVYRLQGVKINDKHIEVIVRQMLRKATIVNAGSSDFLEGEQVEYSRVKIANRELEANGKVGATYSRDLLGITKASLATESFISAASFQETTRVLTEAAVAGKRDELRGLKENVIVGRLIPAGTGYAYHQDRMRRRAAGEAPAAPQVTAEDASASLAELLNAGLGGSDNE
# Sequence of E. coli RNA polymerase (P0A7Z4 whole entry partner): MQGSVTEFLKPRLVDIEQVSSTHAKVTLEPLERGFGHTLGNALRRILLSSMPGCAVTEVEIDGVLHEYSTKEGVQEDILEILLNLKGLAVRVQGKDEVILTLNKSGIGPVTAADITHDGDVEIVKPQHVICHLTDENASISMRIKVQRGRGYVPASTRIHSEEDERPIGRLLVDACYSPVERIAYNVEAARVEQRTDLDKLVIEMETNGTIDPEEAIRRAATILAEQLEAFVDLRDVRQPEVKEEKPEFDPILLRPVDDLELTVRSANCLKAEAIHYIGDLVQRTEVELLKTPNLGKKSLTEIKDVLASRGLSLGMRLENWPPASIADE
# Sequence of E. coli RNA polymerase (P0A800 whole entry partner): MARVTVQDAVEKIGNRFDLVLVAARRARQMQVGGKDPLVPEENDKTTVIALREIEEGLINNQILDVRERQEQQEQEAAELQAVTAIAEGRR
# Protocol: as §1
# E. coli [1] = test: MBC, E. coli; type: cell-based; settings: Escherichia coli
# Source text: (§2) The minimum bactericidal concentration (MBC) is defined as the concentration of antimicrobial agent from which no colonies grow on petri plates or in the medium. In practice, the MBC is arbitrarily defined as the concentration at which a 1000-fold reduction in colony forming units is observed with respect to the original inoculum (survival of 0. 1%). The broth dilution method consists of inoculating the wells from an MIC microliter plate using a 96-well inoculation grid into a fresh microliter plate containing 100 μl. Mueller-Hinton broth per well. The MBC plates are incubated at 37° C. for 16-20 hrs and the MBC values are determined.
# Human RNAP = Human RNAP (Homo sapiens, UniProt P24928+P30876); test: biochemical; settings: Table II, in vitro transcription; read-out: IC50 human pol II
# Protocol: as §1
# S. aureus [2] = test: MBC, S. aureus; type: cell-based; settings: Staphylococcus aureus, Table II
# Source text: as §2
# E. coli [3] = test: Microdilution MIC, E. coli; type: cell-based; settings: Escherichia coli
# Protocol: (§3) Different dilutions are performed for natural product extracts.
# M. catarrhalis = test: MIC, M. catarrhalis; type: cell-based; settings: Moraxella catarrhalis
# Protocol: as §3
# P. aeruginosa = test: MIC, P. aeruginosa; type: cell-based; settings: Pseudomonas aeruginosa
# Protocol: as §3
# K. pneumoniae = test: MIC, K. pneumoniae; type: cell-based; settings: Klebsiella pneumoniae
# Protocol: as §3
# E. cloacae = test: MIC, E. cloacae; type: cell-based; settings: Enterobacter cloacae
# Protocol: as §3
# M. luteus = test: MIC, M. luteus; type: cell-based; settings: Micrococcus luteus; M. luteus ATCC9341
# Protocol: as §3
# S. pneumonia = test: MIC, S. pneumonia; type: cell-based
# Protocol: as §3
# S. epidermidis = test: MIC, S. epidermidis; type: cell-based; settings: Staphylococcus epidermidis, MRSE, E-R
# Protocol: as §3
# E. faecium = test: MIC, E. faecium; type: cell-based; settings: E. faecium Pen-R
# Protocol: as §3
# E. faecalis = test: MIC, E. faecalis; type: cell-based
# Protocol: as §3
# S. aureus [4] = test: Microdilution MIC, S. aureus; type: cell-based
# Protocol: as §3
# H. influenzae = test: MIC, H. influenzae; type: cell-based; settings: Haemophilus influenzae
# Protocol: as §3
# [5] = system: rifampicin susceptible and rifampicin resistant strains; test: microbe, parasite or virus in culture
# Protocol: The MIC is reported as a range between the concentration at which no growth is observed and the concentration of the dilution which immediately followed. Selected inhibitors from the RNA polymerase screen described above were tested for their ability to inhibit bacterial growth in a broth microdilution assay as follows. […] Dilution of antimicrobial agents is performed in a sterile, covered 96-well microliter plate with flat bottom wells (Costar #9017), and each well contains 100 μL of both +/-antimicrobial agent. The final concentrations of the small molecule antimicrobial agents are 100, 50, 25, 12.5, 6.25, 3.12, 1.56, 0.78, 0.39, 0.20, 0.10, and 0.05 μg/mL, respectively. Different dilutions are performed for natural product extracts. They are first diluted 100-fold with Mueller-Hinton broth. The final dilutions of the natural product extracts are 200, 400, 800, 1600, 3200, 6400, 12800, 25600, 51200, 1×105, 2×105, and 4 ×105-fold. A 1% DMSO (no-drug) row is prepared in Mueller-Hinton broth as a control for 100% growth on each plate. A Mueller-Hinton broth only with no bacteria growth is also included as a negative control for each plate. Ampicillin and rifampicin are used as positive controls against all bacterial strains in every experiment.
# The overnight culture of a single colony is diluted in sterile Mueller-Hinton broth so that, after inoculation, each well contains approximately 5×10^5 CFU/mL. Within 15 minutes of preparation, […] of the adjusted inoculum suspension is added to the microliter plate. Each well is diluted with an equal volume of the antimicrobial agent/control substance diluted with sterile Mueller-Hinton broth. The inoculated microliter plate is incubated at 35° C. for 16-20 hours. The turbidity of each well is determined by measuring the absorbance at 595 nm on the BioRad Model 3550-UV microplate reader. The rows containing broth only (no cells) serve as a control, and the rows containing the titration of 1% DMSO serve as a control for 100% growth. The average of the broth only controls is subtracted from the average of each duplicate. This value is subsequently normalized to the average of the DMSO controls.
# [6] = system: myxopyronin-, rifampicin-, and streptolydigin-resistant S. aureus; test: Growth (optical density at 595 nm) of drug-resistant S. aureus cultured with each drug (FIG. 22); type: cell-based; settings: FIG. 22, absorbance at 595 nm
# Protocol: FIG. 22 is a bar graph showing the growth of bacterial cultures, measured by its optical density as measured by absorbance of light at 595 nanometers, after bacteria resistant to myxopyronins, rifampicin, and streptolydigin were cultured in the presence of each of these drugs.
# The site of action of the myxopyronins on RNA polymerase was investigated by assessing the growth of myxopyronin-, rifampicin-, and streptolydigin-resistant S. aureus in the presence of the 90/10 myxopyronin A/B mixture.
# [7] = Table II, read-out: MBC E. coli
# [8] = rifampicin-resistant S. aureus, read-out: MBC rifR-S. aureus
# [9] = read-out: MIC E. coli*, Table II, mutant strain that has permeabilized cell wall
smiles,measurement,setting,value
"CCC/C(C)=C/C=C(\C)C(=O)c1c(O)cc(C(C)CC/C=C/NC(=O)OC)oc1=O (racemic) [MYXO A, (±)-Myxopyronin A]",pIC50,S. aureus RNAP,4.62
same,Relative potency in the in vitro transcription assay using E. coli RNA polymerase,E. coli RNA polymerase,equally potent as the natural product mixtures
same,IC50,E. coli RNA polymerase,7.19 µM
same,MBC,E. coli [1]; read-out: MBC E. coli*,> 30 µg/mL
same,MBC,E. coli [1]; [7],> 30 µg/mL
same,pIC50,Human RNAP,< 3.84
same,MBC,S. aureus [2]; read-out: MBC S. aureus,15 µg/mL
same,MBC,S. aureus [2]; [8],15 µg/mL
same,MIC,E. coli [3]; [9],8 µg/mL
"CCCC/C(C)=C/C=C(\C)C(=O)c1c(O)cc(C(C)CC/C=C/NC(=O)OC)oc1=O (racemic) [MYXO B, (±)-myxopyronin B]",MIC,M. catarrhalis; M. catarrhalis beta lactamase negative,0.5 µg/mL
same,MIC,M. catarrhalis; M. catarrhalis beta lactamase positive,1 µg/mL
same,pIC50,S. aureus RNAP,5.86
same,Relative potency in the in vitro transcription assay using E. coli RNA polymerase,E. coli RNA polymerase,more potent molecule than A
same,IC50,E. coli RNA polymerase,1.85 µM
same,MIC,P. aeruginosa; P. aeruginosa ATCC27853,> 64 µg/mL
same,MIC,"P. aeruginosa; P. aeruginosa, strain not named",> 64 µg/mL
same,MIC,K. pneumoniae,> 64 µg/mL
same,MIC,E. cloacae,> 64 µg/mL
same,MBC,E. coli [1]; read-out: MBC E. coli*,0.2 µg/mL
same,MBC,E. coli [1]; [7],> 100 µg/mL
same,pIC50,Human RNAP,< 3.86
same,MIC,M. luteus,8 µg/mL
same,MIC,S. pneumonia; S. pneumonia ATCC49619,8 µg/mL
same,MIC,S. pneumonia; S. pneumonia Pen I (MIC 0.12),8 µg/mL
same,MIC,S. pneumonia; S. pneumonia Pen I (MIC 0.25),8 µg/mL
same,MIC,S. pneumonia; S. pneumonia Pen I (MIC 1.0),8 µg/mL
same,MIC,S. pneumonia; S. pneumonia Pen R (MIC 2.0),16 µg/mL
same,MIC,S. pneumonia; S. pneumonia Pen R (MIC 4.0),8 µg/mL
same,MIC,S. pneumonia; S. pneumonia Pen S (MIC <0.06),8 µg/mL
same,MIC,S. epidermidis; CC-R,1 µg/mL
same,MIC,S. epidermidis; CC-S,4 µg/mL
same,MBC,S. aureus [2]; read-out: MBC S. aureus,0.4 µg/mL
same,MBC,S. aureus [2]; [8],0.4 µg/mL
same,MIC,E. faecium; Vanco-R,> 64 µg/mL
same,MIC,E. faecium; Vanco-S,> 64 µg/mL
same,MIC,"E. faecium; Enterococcus faecium, Vanco-R, read-out: MIC",64 µg/mL
same,MIC,"E. faecium; Enterococcus faecium, Vanco-S, read-out: MIC",64 µg/mL
same,MIC,"E. faecalis; E. faecalis Pen-S, Vanco-S",16 µg/mL
same,MIC,"E. faecalis; Enterococcus faecalis, ATCC29212, E. faecalis ATCC29212, read-out: MIC",16 µg/mL
same,MIC,"E. faecalis; Enterococcus faecalis, E. faecalis Pen-R, Vanco-S, read-out: MIC",8 µg/mL
same,MIC,"E. faecalis; Enterococcus faecalis, E. faecalis Pen-S, Vanco-S, read-out: MIC",32 µg/mL
same,MIC,"S. aureus [4]; S. aureus MRSA, E-S, CC-S",1 µg/mL
same,MIC,"S. aureus [4]; Staphylococcus aureus, ATCC25923, S. aureus ATCC25923, read-out: MIC",1 µg/mL
same,MIC,"S. aureus [4]; Staphylococcus aureus, ATCC29213, S. aureus ATCC29213, read-out: MIC",1 µg/mL
same,MIC,"S. aureus [4]; Staphylococcus aureus, MRSA, S. aureus MRSA, E-R, CC-S, read-out: MIC",1 µg/mL
same,MIC,"S. aureus [4]; Staphylococcus aureus, Table II, read-out: MIC S. aureus",0.4 µg/mL
same,MIC,"S. aureus [4]; Staphylococcus aureus, Table II, rifampicin-resistant S. aureus, read-out: MIC rifR-S. aureus",0.2 µg/mL
same,Fold more potent cell-based (growth inhibitory) activity than myxopyronin A,"S. aureus [4]; up to, over the bacteria of Table II",up to 75 fold
same,MIC,"E. coli [3]; ATCC25922, Table III, E. coli ATCC25922, read-out: MIC",> 64 µg/mL
same,MIC,"E. coli [3]; Table III, E. coli parent (non-permeable), read-out: MIC",> 64 µg/mL
same,MIC,"E. coli [3]; Table III, E. coli permeable, read-out: MIC",1 µg/mL
same,MIC,E. coli [3]; [9],0.4 µg/mL
same,MIC,"E. coli [3]; Table II, read-out: MIC E. coli",> 100 µg/mL
same,MIC,"H. influenzae; ATCC49247, H. influenzae ATCC49247",2 µg/mL
same,MIC,H. influenzae; H. influenzae non-typable,8 µg/mL
CO[C@H]1/C=C/O[C@@]2(C)Oc3c(C)c(O)c4c(O)c(c(/C=N/N5CCN(C)CC5)c(O)c4c3C2=O)NC(=O)/C(C)=C\C=C\[C@H](C)[C@H](O)[C@@H](C)[C@@H](O)[C@@H](C)[C@H](OC(C)=O)[C@@H]1C [rifampicin],MIC,"[5]; read-out: MIC against resistant strains, background statement b17",> 10 µM
same,MIC,"[5]; read-out: MIC against rifampicin resistant strains, Example 11, b337",> 100 µM
same,MIC,"[5]; read-out: MIC against susceptible strains, Example 11, b337",10 µM
same,MIC,"[5]; read-out: MIC against susceptible strains, background statement b17",~0.01 µM
same,Growth of myxopyronin resistant S. aureus strain in the presence of the drug,[6],inhibits growth
same,Growth of rifampicin resistant S. aureus strain in the presence of the drug,[6],continues to grow
same,Growth of streptolydigin-resistant S. aureus strain in the presence of the drug,[6],inhibited
CNC(=O)[C@@H](C)[C@H]1C(=O)/C(=C(O)/C=C/C(C)=C/[C@@H](C)[C@H]2O[C@@]3(C)O[C@H](C=C[C@@]34CO4)[C@@H]2C)C(=O)N1[C@@H]1CC[C@H](O)[C@H](C)O1 [streptolydigin],Growth of myxopyronin resistant S. aureus strain in the presence of the drug,[6],inhibits growth
same,Growth of rifampicin resistant S. aureus strain in the presence of the drug,[6],inhibits growth
same,Growth of streptolydigin-resistant S. aureus strain in the presence of the drug,[6],continues to grow
